Assay results: patent publication US5567710A, “Polycyclic fused ring modulators of acetylcholine receptors” (SIBIA Neurosciences, Inc., priority 1994, dated 1996)
Read-outs that look alike come from different tables or passages of the source.

What was measured:
[1] = tested on: rats with unilateral 6-hydroxydopamine lesions of the nigro-striatal dopamine pathway; format: in vivo, rat
Description: The effects of invention compounds on turning behavior of rats with unilateral 6-hydroxydopamine lesions in the striatum were evaluated using the procedure of Ungerstedt and Arbutknott Brain Res. 24:485-493 (1970). Rats were injected with desmethylimipramine (25 mg/kg i.p.) and pargyline (75 mg/kg i.p.) approximately 30 minutes prior to 6-hydroxydopamine infusion into the substantia nigra. Results reported in the Table are measured as the maximal rotation per 15-min interval toward the lesioned side of the striatum.

tail flick in rats = format: in vivo, rat
Description: The effects of invention compounds on latency in the time between stimulus application and tail flick in rats were evaluated using the procedure of D'Amour and Smith, J. Pharmacol. Exp. Ther. 72:74-79 (1941). Male rats (150-200g; Harlan, San Diego, Calif.) were acclimated to investigator's handling by taking two-to-three tail-flick latencies. The animals were held by hand such that the tail is placed in the groove of the Tail-Flick meter (IITC Life Sciences, Woodland Hill, Calif., Model 33). The light was focused 3-4 cm from the tip of the tail by a foot-operated switch. The intensity of the incident beam was adjusted to give baseline latencies in the range of 1-4 seconds. Groups of 5-6 rates were used in each treatment. The tail-flick latencies were recorded to the nearest 0.1 seconds and a cut-off time of 10 seconds was established to prevent thermal injury. The results of one such study are shown in Table V. Results presented in the Table are expressed as the percent of the maximum latency to remove the tail from the light beam. Maximum latency is 10 seconds.

rat striatal slices = format: cell-based
Description: (§1) Measurement of ^3 H-dopamine release from rat striatal slices was performed according to the method of Sacaan et al. (J. Neurochem. 59:245 (1992)). Male Sprague-Dawley rats (250-300 g) were decapitated and the striata dissected quickly on a cold glass surface. The tissue was chopped to a thickness of 300 μm with a McIlwain tissue chopper. After chopping again at right angles the tissue was dispersed and incubated for 10 min. at 37° C. in oxygenated Kreb's buffer. ^3 H-Dopamine (40 Ci/mmol, NEN-Dupont, Boston, Mass.) was added (50 nM) and the tissue was incubated for 30 min. in Kreb's buffer containing 10 μM pargyline and 0.5 mM ascorbic acid. Aliquots of the minced tissue were then transferred to chambers of a Brandel Superfusion system in which the tissue was supported on Whatman GF/B filter discs. The tissue was then superfused with buffer at a constant flow rate of 0.3 ml/min. by means of a Brandel peristaltic pump. The perfusate was collected in plastic scintillation vials in 3-min. fractions, and the radioactivity was estimated by scintillation spectrophotometry. The superfusate for the first 120 min. was discarded. After two baseline fractions had been collected, the superfusion buffer was switched to fresh buffer with or without compound of interest. At the end of the experiment the filter and the tissue were removed, and the ^3 H-dopamine content was estimated after extraction into scintillation fluid. The fractional efflux of tritium was estimated as the amount of radioactivity in the perfusate fraction relative to the total amount in the tissue.
(§2) The results of studies of the effects of an invention compound (as compared to the effect of nicotine and cytisine) on the release of neurotransmitters from rat brain slices are presented in Table II. The results presented in the Table are expressed as the percent fractional release.

[2] = tested on: haloperidol-induced catalepsy in rats; assay: Haloperidol-induced catalepsy model in rats; format: in vivo, rat; conditions: s.c.; for Reduction in catalepsy (maximum): haloperidol 2 mg/kg i.p., vs haloperidol alone
rat hippocampus slices = format: cell-based
Description: as §1
(§3) Following essentially the same procedure as set forth in the preceding paragraph, the amount of ^3 H-norepinephrine released from rat hippocampus and thalamus slices superfused with buffer containing (or lacking) compounds of interest was also measured.
as §2

rat thalamus slices = format: cell-based
Description: as §1, §3, §2

[3] = molecular target: T1, acetylcholine receptor (rat cerebral membranes) (Rattus norvegicus, UniProt P09483+P12390); assay: 3H-MCC (methylcarbamylcholine) displacement from rat cerebral membranes; format: binding; conditions: 3H-MCC displacement
T1 construct: Synaptic membranes were prepared by homogenizing the cortical tissue; from tissue; host or cells: cerebral cortex synaptic membranes of male Sprague-Dawley rats
T1 sequence (P09483 31-630): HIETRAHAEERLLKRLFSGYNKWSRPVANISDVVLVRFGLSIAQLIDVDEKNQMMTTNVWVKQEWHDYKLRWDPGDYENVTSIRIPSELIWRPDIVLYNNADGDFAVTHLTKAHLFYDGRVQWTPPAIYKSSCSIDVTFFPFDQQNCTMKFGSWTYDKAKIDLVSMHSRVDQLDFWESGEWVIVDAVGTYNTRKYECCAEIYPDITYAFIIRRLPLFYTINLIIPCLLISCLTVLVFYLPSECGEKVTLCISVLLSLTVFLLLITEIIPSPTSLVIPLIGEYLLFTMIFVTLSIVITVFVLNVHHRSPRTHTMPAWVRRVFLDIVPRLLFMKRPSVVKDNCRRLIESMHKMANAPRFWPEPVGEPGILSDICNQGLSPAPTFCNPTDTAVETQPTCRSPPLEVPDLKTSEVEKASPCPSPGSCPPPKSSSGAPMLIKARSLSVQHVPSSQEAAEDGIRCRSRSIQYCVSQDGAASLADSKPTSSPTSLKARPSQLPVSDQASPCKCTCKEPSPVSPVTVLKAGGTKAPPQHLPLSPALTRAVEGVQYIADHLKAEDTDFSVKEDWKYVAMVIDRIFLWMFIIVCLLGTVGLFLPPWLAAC
T1 sequence (P12390 25-500): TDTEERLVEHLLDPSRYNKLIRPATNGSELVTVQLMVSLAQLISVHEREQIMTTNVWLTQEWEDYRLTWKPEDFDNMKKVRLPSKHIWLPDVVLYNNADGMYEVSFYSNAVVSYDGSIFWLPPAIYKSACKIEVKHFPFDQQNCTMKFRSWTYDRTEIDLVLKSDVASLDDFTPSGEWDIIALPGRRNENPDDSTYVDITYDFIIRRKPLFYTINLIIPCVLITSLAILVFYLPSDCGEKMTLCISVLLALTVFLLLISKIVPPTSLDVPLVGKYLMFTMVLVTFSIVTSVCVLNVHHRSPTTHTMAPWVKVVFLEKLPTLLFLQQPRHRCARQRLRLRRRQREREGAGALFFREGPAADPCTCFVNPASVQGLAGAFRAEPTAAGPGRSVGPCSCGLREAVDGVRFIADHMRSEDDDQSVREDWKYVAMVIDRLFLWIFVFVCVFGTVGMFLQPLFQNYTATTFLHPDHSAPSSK

[4] = molecular target: T1, acetylcholine receptor (rat cerebral membranes); assay: 3H-nicotine displacement from rat cerebral membranes; format: binding; conditions: 3H-nicotine (1.9 nM) displacement, atropine 3 μM
[5] = molecular target: T1, acetylcholine receptor (rat cerebral membranes); assay: 3H-cyt (cytisine) displacement from rat cerebral membranes; format: binding; conditions: 3H-cyt displacement
[6] = molecular target: acetylcholine receptor (rat cerebral membranes); format: binding; conditions: 3H-QNB displacement

## CN1CCCC1c1cccnc1 (centres unmarked) [NICOTINE, nicotine, reference compound]
[1]; rat, in vivo
  Range of activity (maximal rotation per 15-min interval toward the lesioned side of the striatum): 6-50
Tail flick in rats; rat, in vivo
  % maximum possible effect: 38%
  Duration of effect: 60 min
Rat striatal slices
  3H-dopamine striatum, percent fractional release: 1.80
[2]; 2 mg/kg
  Reduction in catalepsy (maximum): 21%
Rat hippocampus slices
  3H-norepinephrine hippocampus, percent fractional release: 4.1
Rat thalamus slices
  3H-norepinephrine thalamus, percent fractional release: 2.9

## CN1CC[C@]23c4c5ccc(O)c4O[C@H]2[C@@H](O)C=C[C@H]3[C@H]1C5 [Morphine, reference compound]
Tail flick in rats; 2 mg/kg, s.c., maximum latency 10 seconds
  % maximum possible effect: 100%

## O=c1cccc2n1C[C@@H]1CNC[C@H]2C1 [CYTISINE, cytisine]
Rat striatal slices; 100 μM
  3H-dopamine striatum, percent fractional release: 0.96%
Rat hippocampus slices; 100 μM
  3H-norepinephrine hippocampus, percent fractional release: 4.3%
Rat thalamus slices; 100 μM
  3H-norepinephrine thalamus, percent fractional release: 2.9%

## CC(N)Cc1ccccc1 (centres unmarked) [AMPHETAMINE, reference compound]
[1]; 5 mg/kg, s.c.
  Range of activity (maximal rotation per 15-min interval toward the lesioned side of the striatum): 50-200 rotation per 15-min interval

## c1cc2c(cn1)C1NCCC1CO2 (centres unmarked)
[3]
  IC50: 0.61 µM
[4]
  IC50: 0.51 µM
[5]
  IC50: 2 µM

## COc1cc2c(cn1)C1NCCC1CC2 (centres unmarked)
[1]; 10 mg/kg, s.c.
  Range of activity (maximal rotation per 15-min interval toward the lesioned side of the striatum): 9-50 rotation per 15-min interval
  Turning towards the 6-hydroxydopamine-lesioned side (in words): induces turning towards the 6-hydroxydopamine-lesioned side of the rat striatum
[6]
  IC50: 6 µM
Tail flick in rats; 30 mg/kg, p.o.
  Duration of effect: > 180 min
Tail flick in rats; 30 mg/kg, p.o., as compared to nicotine
  Latency between application of stimulus and tail-flick response (in words): increased the latency period, as compared to nicotine
Tail flick in rats; 30 mg/kg, p.o., maximum latency 10 seconds
  % maximum possible effect: 52%
Tail flick in rats; rat, in vivo
  Duration of effect versus morphine (in words): longer duration than the effect of morphine
[3]
  IC50: 0.8 µM
[4]
  IC50: 1.9 µM
Rat striatal slices; 300 μM
  3H-dopamine striatum, percent fractional release: 2.2%
Rat striatal slices; striatum (dopamine), hippocampus and thalamus (norepinephrine)
  Release of catecholamines from rat brain slices (in words): selectively induces release of catecholamines in different brain regions
[2]; 3 mg/kg
  Cataleptogenic effect of haloperidol in rats (in words): reduces the cataleptogenic effect of haloperidol in rats
  Reduction in catalepsy (maximum): 34%
[5]
  IC50: 5.4 µM
Rat hippocampus slices; 300 μM
  3H-norepinephrine hippocampus, percent fractional release: 0.69%
Rat thalamus slices; 300 μM
  3H-norepinephrine thalamus, percent fractional release: 2.2%

## COc1cc2c(cn1)C1C(CC2)CCN1C (centres unmarked)
[6]
  IC50: 9 µM
[3]
  IC50: 5.5 µM
[4]
  IC50: 10.7 µM
[5]
  IC50: 27.5 µM
